# Experimental data taken from patent US20250261636A1, “QUATERNARY AMMONIUM SANITIZING COMPOSITION” (ECOLAB USA INC., priority 2020, published 2025).
# Several values for one entry are separate records, joined by “and”; a condition that tells them apart may be missing. Equal values may be shown once.
# Key:
# [1] = tested on: Escherichia coli ATCC 11229; experiment: AOAC Method 960.09 Germicidal and Detergent Sanitizing Action of Disinfectants, food contact sanitizing suspension test; format: cell-based; details: for Log Reduction: per replicate
# Protocol: (§1) The microbial efficacy of the multipurpose sanitizing composition was evaluated for food contact applications. The purpose of the testing is to determine the efficacy of compositions used for sanitizing food contact surfaces, which in the evaluations were pre-cleaned, non-porous surfaces using AOAC Method 960.09 Germicidal and Detergent Sanitizing Action of Disinfectants. […] The test organisms included Staphylococcus aureus ATCC 6538 and Escherichia coli ATCC 11229.
# (§2) The pH was adjusted by use of a polycarboxylic acid (unless otherwise noted, such as the polycarboxylate citrate tested at pH 8). In this screening test pH 9, 8, 7, 5, 4, and 3 were tested. “NT” indicates a condition was “Not Tested.”
# [2] = tested on: Staphylococcus aureus ATCC 6538; experiment: as above; format: cell-based; details: 30 ppm, pH 5, 120° F.
# Protocol: as §1, §2
structure (smiles),measurement,setting,value
"CCCCCCCCCC[N+](C)(C)CCCCCCCCCC.[Cl-] [Bardac 2250, didecyl dimethyl ammonium chloride]",Average Log Reduction,"[1]; 30 ppm, pH 5, 120° F.",6.83 log
same,Average Log Reduction,"[1]; 30 ppm, pH 7, 120° F.",3.33 log
same,CFU - Dilution 1E−01,"[1]; 30 ppm, pH 7, 120° F.",TNTC
same,CFU - Dilution 1E−02,"[1]; 30 ppm, pH 7, 120° F.",TNTC
same,CFU/mL,"[1]; 30 ppm, pH 7, 120° F.",3.00E+04 CFU/mL
same,Log Reduction,"[1]; 30 ppm, pH 7, 120° F.",3.33 log
same,Average Log Reduction,"[1]; 30 ppm, pH 9, 120° F.",3.33 log
same,CFU - Dilution 1E−01,"[1]; 30 ppm, pH 9, 120° F.",TNTC
same,CFU - Dilution 1E−02,"[1]; 30 ppm, pH 9, 120° F.",TNTC
same,CFU/mL,"[1]; 30 ppm, pH 9, 120° F.",3.00E+04 CFU/mL
same,Log,"[1]; 30 ppm, pH 9, 120° F.",4.48
same,Log Reduction,"[1]; 30 ppm, pH 9, 120° F.",3.33 log
same,Average Log Reduction,"[1]; 40 ppm, pH 7, 120° F.",5.02 log
same,Average Log Reduction,"[1]; 40 ppm, pH 9, 120° F.",4.63 log
same,CFU - Dilution 1E−01,"[1]; 40 ppm, pH 9, 120° F.",192 CFU and 120 CFU
same,CFU - Dilution 1E−02,"[1]; 40 ppm, pH 9, 120° F.",12 CFU and 14 CFU
same,CFU/mL,"[1]; 40 ppm, pH 9, 120° F.",1.85E+03 CFU/mL and 1.22E+03 CFU/mL
same,Log,"[1]; 40 ppm, pH 9, 120° F.",3.27 and 3.09
same,Log Reduction,"[1]; 40 ppm, pH 9, 120° F.",4.54 log and 4.72 log
same,log reduction E. coli (ATCC 11229),"[1]; 50 ppm, pH 7, 120° F.",6.71 log
same,log reduction S. aureus (ATCC 6538),[2],6.88 log
"CCCCCCCC[N+](C)(C)CCCCCCCC.[Cl-] [Bardac LF, dioctyl dimethyl ammonium chloride]",Average Log Reduction,"[1]; 30 ppm, pH 5, 120° F.",3.06 log
same,CFU - Dilution 1E−01,"[1]; 30 ppm, pH 5, 120° F.",TNTC
same,CFU - Dilution 1E−02,"[1]; 30 ppm, pH 5, 120° F.",TNTC
same,CFU/mL,"[1]; 30 ppm, pH 5, 120° F.",3.0E+04 CFU/mL
same,Log,"[1]; 30 ppm, pH 5, 120° F.",4.48
same,Log Reduction,"[1]; 30 ppm, pH 5, 120° F.",3.06 log
same,Average Log Reduction,"[1]; 30 ppm, pH 7, 120° F.",3.06 log
same,log reduction E. coli (ATCC 11229),"[1]; 60 ppm, pH 5, 120° F.",3.06 log
same,log reduction E. coli (ATCC 11229),"[1]; 60 ppm, pH 7, 120° F.",3.06 log
same,log reduction E. coli (ATCC 11229),"[1]; 90 ppm, pH 5, 120° F.",3.06 log
same,log reduction E. coli (ATCC 11229),"[1]; 90 ppm, pH 7, 120° F.",3.06 log
